{
  "source": "patent US4900815A",
  "about": "“Sulfated polysaccharide DS4152” (Daiichi Seiyaku Co., Ltd., priority 1986, dated 1990)",
  "key": {"CAM angiogenesis": {"test_system": "CAM angiogenesis", "assay": "CAM Angiogenesis Inhibition Test (Direct Method), DS4152 and heparins with tamoxifen citrate", "format": "in vivo, chick", "details": "with tamoxifen citrate 1 μg", "experimental": "(§1) Using chick embryos, a test was carried out in accordance with the following method, which was a partial modification of the Taylor-Folkman'smethod Nature, 297, 307 (1982)].\n(§2) Either DS4152 or heparin dissolved in physiological saline was added to the CAM of each 4-5 day old fertilized chicken 1 egg (species: NORIN CROSS) and then the eggs were incubated at 37° C.\n(§3) Two days after the addition of the agent, the degree of the CAM vascularization was compared with that of a control to which physiological saline was only added. The 50% vascularization inhibition dose (ID50) was calculated by the probit method.\nA test was conducted in the same manner as in Example 2. Antiestrogens were separately dissolved or suspended in physiological saline and were added either alone or together with DS4152. The eggs with the agents were incubated at 37° C. Two days after the addition of the agents, the degrees of development of CAM vessels were individually compared with that of a control to which physiological saline was only added."}, "Sarcoma 180 (S180) [1]": {"test_system": "Sarcoma 180 (S180)", "assay": "Antitumor Test, S180, tamoxifen citrate with DS4152 or heparins", "format": "in vivo, mouse (male ICR)", "details": "300 mg/kg oral + tamoxifen citrate 100 mg/kg s.c.; for Tumor weight, mean ± S.D.: p < 0.05", "experimental": "C3H/He male mice (5 weeks old) were each inoculated subcutaneously with 4×10^6 cells of mouse mammary carcinoma MM46. Mice were randomized after measuring the diameters of the resultant tumors on the 7th day. In addition, male ICR mice (5 weeks old) were each inoculated subcutaneously with 1×10^6 cells of Sarcoma 180 (S180). On the 3rd days, the mice were randomized. A saline suspension of tamoxifen citrate was administered once a day for 4 days to the MM46-bearing mice on the 7th day after inoculation and to the S180-bearing mice on the 3rd day after inoculation. DS4152 and heparins were individually dissolved in physiological saline and administered either orally or subcutaneously once a day for 4 days at a dose of 30 mg/kg/day or 300 mg/kg/day. On the 5th day after the beginning of the administration, the animals were sacrificed. The tumor weights were compared with those of the control mice administered only with physiological saline (Table 15)."}, "breast cancer": {"test_system": "breast cancer", "details": "Oncologia, 10, 72 (1984); cited from earlier work"}, "[2]": {"test_system": "CAM vascularization of chick embryos", "assay": "CAM Angiogenesis Inhibition Test (Direct Method), combination with cortisone acetate", "format": "in vivo", "details": "0.5 μg per embryo, alone", "experimental": "as §1, §2, §3\nIn the same manner as in Example 2, combination effects of a steroid and DS4152 were examined. […] The activities of DF4639 and H Fraction were also investigated in the comparison with that of DS4152."}, "[3]": {"test_system": "angiogenesis of the chick CAM", "assay": "CAM angiogenesis inhibition, various steroids alone or with DS4152", "format": "in vivo", "details": "for degree of increase: ID50 alone vs. in the presence of 10 ng of DS4152; for ID50, used in combination with DS4152: in the presence of 10 ng of DS4152; for ID50, alone: steroid alone"}, "CAM vascularization": {"test_system": "CAM vascularization", "assay": "Antiangiogenic Effects (Ex Vivo) of steroids with or without DS4152", "parameters": "species or system chick (blood from male ICR mice)", "experimental": "Male ICR mice were orally administered with a solution of DS4152 dissolved in physiological saline. A saline suspension of a steroid was administered orally or intramuscularly, either in combination with DS4152 or alone. Blood samples collected after 6 hours were prevented from coagulation with a 0.313% aqueous solution of sodium citrate. Each blood sample was added to the 5 day CAM in the same manner as in the direct method. The inhibitory effects were judged after two days. Results were expressed by inhibition ratios (%) of CAM vascularization of each group to that of control group with a blood sample collected from the mice with saline. (Table 11)."}, "Sarcoma 180 (S180) [4]": {"test_system": "Sarcoma 180 (S180)", "assay": "Antitumor Test, Sarcoma 180, DS4152 and cortisone acetate", "format": "in vivo, mouse (male ICR)", "experimental": "Male ICR mice (5 weeks old) were each inoculated subcutaneously with 1×10^6 cells of Sarcoma 180 (S180). From the 3rd day, a saline suspension of cortisone acetate was administered at a dose of 250 mg/kg/day for 3 days and then at a dose of 100 mg/kg/day for 1 day.\nDS4152 was dissolved in physiological saline and administered at a dose of 0.61 or 6.1 mg/mouse subcutaneously or orally once a day for 4 days. On the 7th day after the inoculation, the mice were sacrificed to compare their tumor weights with those of the control mice."}, "[5]": {"test_system": "vascularization in chorioallantoic membrane (CAM) of chick embryo, rabbit cornea and hamster cheek pouches", "details": "cited from earlier work"}, "[6]": {"test_system": "CAM vascularization of chick embryos", "assay": "CAM Angiogenesis Inhibition Test (Direct Method)", "format": "in vivo, chick (NORIN CROSS)", "details": "even at 100 μg", "experimental": "as §1, §2, §3"}, "[7]": {"details": "steroid p.o. 5 mg/kg, DS4152 30 mg/kg p.o."}, "[8]": {"details": "cortisone acetate alone, 250 then 100 mg/kg/day"}},
  "data": [
    {"molecule": "low molecular weight heparin", "values": [
      {"measurement": "50% vascularization inhibition dose", "setting": "CAM angiogenesis", "result": 1.37, "unit": "µg"},
      {"measurement": "T/C", "setting": "Sarcoma 180 (S180) [1]", "result": 66, "unit": "%"},
      {"measurement": "Tumor weight, mean ± S.D.", "setting": "Sarcoma 180 (S180) [1]", "result": "202 ± 22", "unit": "mg"}
    ]},
    {"molecule": "CCC(=O)O[C@H]1CC[C@H]2[C@@H]3CCC4=CC(=O)CC[C@]4(C)[C@H]3CC[C@]12C", "note": "[testosterone propionate]", "values": [
      {"measurement": "effectivity (anti-breast cancer)", "setting": "breast cancer", "result": "20-30%"}
    ]},
    {"molecule": "CC(=O)OCC(=O)[C@@]1(O)CC[C@H]2[C@@H]3CCC4=CC(=O)CC[C@]4(C)[C@H]3C(=O)C[C@@]21C", "note": "[Cortisone acetate]", "values": [
      {"measurement": "influence on vascularization", "setting": "[2]", "result": "not to give any influence to the vascularization"},
      {"measurement": "degree of increase", "setting": "[3]", "result": 7.1, "unit": "times"},
      {"measurement": "ID50, used in combination with DS4152", "setting": "[3]", "result": 0.17, "unit": "μg/embryo"},
      {"measurement": "ID50, alone", "setting": "[3]", "result": 1.20, "unit": "μg/embryo"},
      {"measurement": "Inhibition rate of angiogenesis", "setting": "CAM vascularization; steroid p.o. 5 mg/kg, DS4152 0", "result": 7.7, "unit": "%"},
      {"measurement": "Inhibition rate of angiogenesis", "setting": "CAM vascularization; [7]", "result": 75.1, "unit": "%"},
      {"measurement": "T/C", "setting": "Sarcoma 180 (S180) [4]; [8]", "result": 94.2, "unit": "%"},
      {"measurement": "Tumor weight, mean ± standard error", "setting": "Sarcoma 180 (S180) [4]; [8]", "result": "0.340 ± 0.162"},
      {"measurement": "tumor weight compared with saline group", "setting": "Sarcoma 180 (S180) [4]; cortisone acetate only", "result": "not different"}
    ]},
    {"molecule": "C[C@]12CC[C@@H]3c4ccc(O)cc4CC[C@H]3[C@@H]1CC[C@@H]2O", "note": "[17β-Estradiol]", "values": [
      {"measurement": "degree of increase", "setting": "[3]", "result": 7.0, "unit": "times"},
      {"measurement": "ID50, used in combination with DS4152", "setting": "[3]", "result": 0.28, "unit": "μg/embryo"},
      {"measurement": "ID50, alone", "setting": "[3]", "result": 1.96, "unit": "μg/embryo"}
    ]},
    {"molecule": "C[C@]12C=CC(=O)C=C1CC[C@@H]1[C@@H]2[C@@H](O)C[C@@]2(C)[C@H]1CC[C@]2(O)C(=O)CO", "note": "[Prednisolone]", "values": [
      {"measurement": "degree of increase", "setting": "[3]", "result": 16.3, "unit": "times"},
      {"measurement": "ID50, used in combination with DS4152", "setting": "[3]", "result": 0.08, "unit": "μg/embryo"},
      {"measurement": "ID50, alone", "setting": "[3]", "result": 1.30, "unit": "μg/embryo"},
      {"measurement": "suppression of experimentally induced vascularization", "setting": "[5]", "result": "effective"}
    ]},
    {"molecule": "C[C@]12CC[C@@H](O)C[C@H]1CC[C@@H]1[C@@H]2CC[C@@]2(C)[C@H]1CC[C@]2(O)C(=O)CO", "note": "[Tetrahydro S]", "values": [
      {"measurement": "degree of increase", "setting": "[3]", "result": 100.0, "unit": "times"},
      {"measurement": "ID50, used in combination with DS4152", "setting": "[3]", "result": 0.01, "unit": "μg/embryo"},
      {"measurement": "ID50, alone", "setting": "[3]", "result": 1.00, "unit": "μg/embryo"},
      {"measurement": "Inhibition rate of angiogenesis", "setting": "CAM vascularization; steroid p.o. 1 mg/kg, DS4152 0", "result": -2.6, "unit": "%"},
      {"measurement": "Inhibition rate of angiogenesis", "setting": "CAM vascularization; steroid p.o. 1 mg/kg, DS4152 30 mg/kg p.o.", "result": 71.7, "unit": "%"},
      {"measurement": "Inhibition rate of angiogenesis", "setting": "CAM vascularization; steroid p.o. 5 mg/kg, DS4152 0", "result": -17.3, "unit": "%"},
      {"measurement": "Inhibition rate of angiogenesis", "setting": "CAM vascularization; [7]", "result": 80.7, "unit": "%"}
    ]},
    {"molecule": "C[C@]1(O)CC[C@H]2[C@@H]3CCC4=CC(=O)CC[C@]4(C)[C@@]3(F)[C@@H](O)C[C@@]21C", "note": "[Fluoxymesterone]", "values": [
      {"measurement": "degree of increase", "setting": "[3]", "result": 10.3, "unit": "times"},
      {"measurement": "ID50, used in combination with DS4152", "setting": "[3]", "result": 0.12, "unit": "μg/embryo"},
      {"measurement": "ID50, alone", "setting": "[3]", "result": 1.24, "unit": "μg/embryo"},
      {"measurement": "effectivity (anti-breast cancer)", "setting": "breast cancer", "result": "20-30%"}
    ]},
    {"molecule": "C[C@@H]1C[C@H]2[C@@H]3CCC4=CC(=O)C=C[C@]4(C)[C@@]3(F)[C@@H](O)C[C@]2(C)[C@@]1(O)C(=O)CO", "note": "[dexamethasone]", "values": [
      {"measurement": "suppression of experimentally induced vascularization", "setting": "[5]", "result": "effective"}
    ]},
    {"molecule": "heparin", "values": [
      {"measurement": "effect on CAM vascularization", "setting": "[6]", "result": "no effect"},
      {"measurement": "50% vascularization inhibition dose", "setting": "CAM angiogenesis", "result": 3.43, "unit": "µg"},
      {"measurement": "T/C", "setting": "Sarcoma 180 (S180) [1]", "result": 66, "unit": "%"},
      {"measurement": "Tumor weight, mean ± S.D.", "setting": "Sarcoma 180 (S180) [1]", "result": "203 ± 13", "unit": "mg"}
    ]}
  ]
}
